Measurements taken from ChEMBL document CHEMBL5303573, “Mapping human microbiome drug metabolism by gut bacteria and their genes” (Nature, 2019).

What was measured:
[1] = The drug is tested on Clostridium hathewayi strain: DSM13479 for biotransformation. The drug concentrations were measured before and after a 12-h incubation by liquid-chromatography-coupled mass spectrometry (LC–MS); settings: hungatella hathewayi, 2 µM
[2] = The drug is tested on Clostridium spiroforme strain: DSM1552 for biotransformation. The drug concentrations were measured before and after a 12-h incubation by liquid-chromatography-coupled mass spectrometry (LC–MS); settings: thomasclavelia spiroformis, 2 µM
[3] = clostridioides difficile, 12 h, 2 µM
[4] = The drug is tested on Clostridium symbiosum strain: ATCC14940 for biotransformation. The drug concentrations were measured before and after a 12-h incubation by liquid-chromatography-coupled mass spectrometry (LC–MS); settings: 2 µM
[5] = The drug is tested on Clostridium scindens strain: ATCC35704 for biotransformation. The drug concentrations were measured before and after a 12-h incubation by liquid-chromatography-coupled mass spectrometry (LC–MS); settings: 2 µM
[6] = enterocloster bolteae, 12 h, 2 µM
[7] = The drug is tested on Clostridium ramosum strain: DSM1402 for biotransformation. The drug concentrations were measured before and after a 12-h incubation by liquid-chromatography-coupled mass spectrometry (LC–MS); settings: thomasclavelia ramosa, 2 µM
[8] = The drug is tested on Clostridium asparagiforme strain: DSM15981 for biotransformation. The drug concentrations were measured before and after a 12-h incubation by liquid-chromatography-coupled mass spectrometry (LC–MS); format: ADME; design: dose 2 uM, timepoint 0 vs 12 hours; settings: enterocloster asparagiformis, 2 µM
[9] = The drug is tested on Clostridium sporogenes strain: ATCC15579 for biotransformation. The drug concentrations were measured before and after a 12-h incubation by liquid-chromatography-coupled mass spectrometry (LC–MS); settings: 2 µM
[10] = The drug is tested on Bacteroides fragilis strain: HMW615 for biotransformation. The drug concentrations were measured before and after a 12-h incubation by liquid-chromatography-coupled mass spectrometry (LC–MS); settings: 2 µM
[11] = anaerostipes sp., 12 h, 2 µM
Description: The drug is tested on Anaerostipes sp. strain: fecal isolate for biotransformation. The drug concentrations were measured before and after a 12-h incubation by liquid-chromatography-coupled mass spectrometry (LC–MS)

[12] = The drug is tested on Bacteroides pectinophilus strain: ATCC43243 for biotransformation. The drug concentrations were measured before and after a 12-h incubation by liquid-chromatography-coupled mass spectrometry (LC–MS); settings: 2 µM
[13] = bifidobacterium adolescentis, 12 h, 2 µM
Description: The drug is tested on Bifidobacterium adolescentis strain: ATCC 15703 for biotransformation. The drug concentrations were measured before and after a 12-h incubation by liquid-chromatography-coupled mass spectrometry (LC–MS)

[14] = The drug is tested on Edwardsiella tarda strain: ATCC23685 for biotransformation. The drug concentrations were measured before and after a 12-h incubation by liquid-chromatography-coupled mass spectrometry (LC–MS); settings: 2 µM
[15] = The drug is tested on Bacteroides vulgatus strain: ATCC8482 for biotransformation. The drug concentrations were measured before and after a 12-h incubation by liquid-chromatography-coupled mass spectrometry (LC–MS); settings: phocaeicola vulgatus, 2 µM
[16] = bacteroides eggerthii, 12 h, 2 µM
Description: The drug is tested on Bacteroides eggerthii strain: DSM20697 for biotransformation. The drug concentrations were measured before and after a 12-h incubation by liquid-chromatography-coupled mass spectrometry (LC–MS)

[17] = The drug is tested on Bacteroides uniformis strain: ATCC8492 for biotransformation. The drug concentrations were measured before and after a 12-h incubation by liquid-chromatography-coupled mass spectrometry (LC–MS); settings: 2 µM
[18] = The drug is tested on Bacteroides fragilis strain: ATCC43859 for biotransformation. The drug concentrations were measured before and after a 12-h incubation by liquid-chromatography-coupled mass spectrometry (LC–MS); settings: 2 µM
[19] = The drug is tested on Bifidobacterium ruminantium strain: fecal isolate for biotransformation. The drug concentrations were measured before and after a 12-h incubation by liquid-chromatography-coupled mass spectrometry (LC–MS); settings: 2 µM
[20] = victivallis vadensis, 12 h, 2 µM
Description: The drug is tested on Victivallis vadensis strain: ATCC BAA-548 for biotransformation. The drug concentrations were measured before and after a 12-h incubation by liquid-chromatography-coupled mass spectrometry (LC–MS)

[21] = roseburia intestinalis, 12 h, 2 µM
Description: The drug is tested on Roseburia intestinalis strain: L1-82 for biotransformation. The drug concentrations were measured before and after a 12-h incubation by liquid-chromatography-coupled mass spectrometry (LC–MS)

[22] = The drug is tested on Ruminococcus torques strain: ATCC27756 for biotransformation. The drug concentrations were measured before and after a 12-h incubation by liquid-chromatography-coupled mass spectrometry (LC–MS); format: ADME; design: dose 2 uM, timepoint 0 vs 12 hours; settings: 2 µM
[23] = The drug is tested on Bacteroides fragilis strain: HMW610 for biotransformation. The drug concentrations were measured before and after a 12-h incubation by liquid-chromatography-coupled mass spectrometry (LC–MS); settings: 2 µM
[24] = The drug is tested on Bacteroides xylanisolvens strain: DSM18836 for biotransformation. The drug concentrations were measured before and after a 12-h incubation by liquid-chromatography-coupled mass spectrometry (LC–MS); settings: 2 µM
[25] = The drug is tested on Bifidobacterium breve strain: DSM20213 for biotransformation. The drug concentrations were measured before and after a 12-h incubation by liquid-chromatography-coupled mass spectrometry (LC–MS); settings: 2 µM
[26] = parabacteroides distasonis, 12 h, 2 µM
Description: The drug is tested on Parabacteroides distasonis strain: ATCC8503 for biotransformation. The drug concentrations were measured before and after a 12-h incubation by liquid-chromatography-coupled mass spectrometry (LC–MS)

[27] = The drug is tested on Bacteroides cellulosilyticus strain: DSM14838 for biotransformation. The drug concentrations were measured before and after a 12-h incubation by liquid-chromatography-coupled mass spectrometry (LC–MS); settings: 2 µM
[28] = parabacteroides johnsonii, 12 h, 2 µM
Description: The drug is tested on Parabacteroides johnsonii strain: DSM18315 for biotransformation. The drug concentrations were measured before and after a 12-h incubation by liquid-chromatography-coupled mass spectrometry (LC–MS)

[29] = bacteroides fragilis, 12 h, 2 µM
Description: The drug is tested on Bacteroides fragilis strain: NCTC 9343 for biotransformation. The drug concentrations were measured before and after a 12-h incubation by liquid-chromatography-coupled mass spectrometry (LC–MS)

[30] = The drug is tested on Bacteroides caccae strain: ATCC43185 for biotransformation. The drug concentrations were measured before and after a 12-h incubation by liquid-chromatography-coupled mass spectrometry (LC–MS); settings: 2 µM
[31] = bacteroides fragilis, 12 h, 2 µM; remark: listed apart in the source
Description: The drug is tested on Bacteroides fragilis strain: DS-208 for biotransformation. The drug concentrations were measured before and after a 12-h incubation by liquid-chromatography-coupled mass spectrometry (LC–MS)

[32] = The drug is tested on Bacteroides sp. WH2 strain: WH2 for biotransformation. The drug concentrations were measured before and after a 12-h incubation by liquid-chromatography-coupled mass spectrometry (LC–MS); settings: bacteroides sp. wh2, 12 h, 2 µM
[33] = bacteroides stercoris, 12 h, 2 µM
Description: The drug is tested on Bacteroides stercoris strain: ATCC43183 for biotransformation. The drug concentrations were measured before and after a 12-h incubation by liquid-chromatography-coupled mass spectrometry (LC–MS)

[34] = bacteroides intestinalis, 12 h, 2 µM
Description: The drug is tested on Bacteroides intestinalis strain: DSM17393 for biotransformation. The drug concentrations were measured before and after a 12-h incubation by liquid-chromatography-coupled mass spectrometry (LC–MS)

[35] = bacteroides thetaiotaomicron, 12 h, 2 µM
Description: The drug is tested on Bacteroides thetaiotaomicron strain: VPI-5482 for biotransformation. The drug concentrations were measured before and after a 12-h incubation by liquid-chromatography-coupled mass spectrometry (LC–MS)

[36] = bacteroides thetaiotaomicron, 12 h, 2 µM; remark: listed apart in the source
Description: The drug is tested on Bacteroides thetaiotaomicron strain: 7330 for biotransformation. The drug concentrations were measured before and after a 12-h incubation by liquid-chromatography-coupled mass spectrometry (LC–MS)

[37] = The drug is tested on Providencia stuartii strain: ATCC25827 for biotransformation. The drug concentrations were measured before and after a 12-h incubation by liquid-chromatography-coupled mass spectrometry (LC–MS); settings: 2 µM
[38] = The drug is tested on Bifidobacterium longum subsp. Infantis strain: CCUG52486 for biotransformation. The drug concentrations were measured before and after a 12-h incubation by liquid-chromatography-coupled mass spectrometry (LC–MS); settings: 2 µM
[39] = The drug is tested on Eubacterium hallii strain: DSM3353 for biotransformation. The drug concentrations were measured before and after a 12-h incubation by liquid-chromatography-coupled mass spectrometry (LC–MS); settings: anaerobutyricum hallii, 2 µM
[40] = The drug is tested on Collinsella intestinalis strain: DSM13280 for biotransformation. The drug concentrations were measured before and after a 12-h incubation by liquid-chromatography-coupled mass spectrometry (LC–MS); settings: 2 µM
[41] = The drug is tested on Odoribacter splanchnicus strain: fecal isolate for biotransformation. The drug concentrations were measured before and after a 12-h incubation by liquid-chromatography-coupled mass spectrometry (LC–MS); settings: 2 µM
[42] = The drug is tested on Ruminococcus gnavus strain: ATCC29149 for biotransformation. The drug concentrations were measured before and after a 12-h incubation by liquid-chromatography-coupled mass spectrometry (LC–MS); settings: mediterraneibacter gnavus, 2 µM
[43] = The drug is tested on Enterobacter cancerogenus strain: ATCC35316 for biotransformation. The drug concentrations were measured before and after a 12-h incubation by liquid-chromatography-coupled mass spectrometry (LC–MS); settings: 2 µM
[44] = The drug is tested on Enterococcus faecalis strain: V583 for biotransformation. The drug concentrations were measured before and after a 12-h incubation by liquid-chromatography-coupled mass spectrometry (LC–MS); settings: 2 µM
[45] = The drug is tested on Blautia luti strain: DSM14534 for biotransformation. The drug concentrations were measured before and after a 12-h incubation by liquid-chromatography-coupled mass spectrometry (LC–MS); format: ADME; design: dose 2 uM, timepoint 0 vs 12 hours; settings: 2 µM
[46] = limosilactobacillus reuteri cf48-3a, 12 h, 2 µM
Description: The drug is tested on Lactobacillus reuteri CF48-3A strain: BEI HM-102 for biotransformation. The drug concentrations were measured before and after a 12-h incubation by liquid-chromatography-coupled mass spectrometry (LC–MS)

[47] = The drug is tested on Bacteroides coprophilus strain: DSM18228 for biotransformation. The drug concentrations were measured before and after a 12-h incubation by liquid-chromatography-coupled mass spectrometry (LC–MS); settings: 2 µM
[48] = akkermansia muciniphila, 12 h, 2 µM
Description: The drug is tested on Akkermansia muciniphila strain: ATCC BAA-835 for biotransformation. The drug concentrations were measured before and after a 12-h incubation by liquid-chromatography-coupled mass spectrometry (LC–MS)

[49] = segatella copri, 12 h, 2 µM
Description: The drug is tested on Prevotella copri strain: DSM18205 for biotransformation. The drug concentrations were measured before and after a 12-h incubation by liquid-chromatography-coupled mass spectrometry (LC–MS)

[50] = The drug is tested on Collinsella aerofaciens strain: ATCC25986 for biotransformation. The drug concentrations were measured before and after a 12-h incubation by liquid-chromatography-coupled mass spectrometry (LC–MS); settings: 2 µM
[51] = bacteroides thetaiotaomicron, 12 h, 2 µM; remark: listed apart in the source
Description: The drug is tested on Bacteroides thetaiotaomicron strain: 3731 for biotransformation. The drug concentrations were measured before and after a 12-h incubation by liquid-chromatography-coupled mass spectrometry (LC–MS)

Measured: Bacterial Biotransformation

Br.NC(=O)C(c1ccccc1)(c1ccccc1)[C@@H]1CCN(CCc2ccc3c(c2)CCO3)C1 [DARIFENACIN HYDROBROMIDE]
Compound NOT metabolized: [1] | [2] | [3] | [4] | [5] | [6] | [7] | [8] | [9]

Cc1ccccc1N1C(=O)c2cc(S(N)(=O)=O)c(Cl)cc2NC1C (centres undefined) [METOLAZONE]
Compound NOT metabolized: [10] | [11] | [12] | [13] | [14] | [15] | [16] | [17] | [18] | [19] | [20] | [21] | [22] | [23] | [4] | [24] | [25] | [26] | [27] | [28] | [29] | [30] | [31] | [32] | [33] | [34] | [35] | [36] | [37] | [38] | [39] | [7] | [40] | [8] | [41] | [42] | [43] | [44] | [45] | [46] | [47] | [48] | [49] | [50] | [51]
